Measured values reported in patent EP0019937B1, “A method for producing alcohol oxidase, alcohol oxidase, enzyme preparation and a method for determining the concentration of a compound in an alcohol-containing sample” (PHILLIPS PETROLEUM COMPANY, priority 1979, dated 1980).

Columns and labels:
[1] = biological target: T1, alcohol oxidase from Pichia pastoris (Komagataella phaffii, UniProt P04842); experiment: Characteristics of the Pichia enzyme (Km, inhibitors, substrate reactivity); assay type: biochemical
T1 construct: preparation and isolation of pure crystalline alcohol oxidase from Pichia pastoris; endogenous in cells; homogenate supernatant dialysed to give crystalline enzyme
T1 sequence (P04842 1-663): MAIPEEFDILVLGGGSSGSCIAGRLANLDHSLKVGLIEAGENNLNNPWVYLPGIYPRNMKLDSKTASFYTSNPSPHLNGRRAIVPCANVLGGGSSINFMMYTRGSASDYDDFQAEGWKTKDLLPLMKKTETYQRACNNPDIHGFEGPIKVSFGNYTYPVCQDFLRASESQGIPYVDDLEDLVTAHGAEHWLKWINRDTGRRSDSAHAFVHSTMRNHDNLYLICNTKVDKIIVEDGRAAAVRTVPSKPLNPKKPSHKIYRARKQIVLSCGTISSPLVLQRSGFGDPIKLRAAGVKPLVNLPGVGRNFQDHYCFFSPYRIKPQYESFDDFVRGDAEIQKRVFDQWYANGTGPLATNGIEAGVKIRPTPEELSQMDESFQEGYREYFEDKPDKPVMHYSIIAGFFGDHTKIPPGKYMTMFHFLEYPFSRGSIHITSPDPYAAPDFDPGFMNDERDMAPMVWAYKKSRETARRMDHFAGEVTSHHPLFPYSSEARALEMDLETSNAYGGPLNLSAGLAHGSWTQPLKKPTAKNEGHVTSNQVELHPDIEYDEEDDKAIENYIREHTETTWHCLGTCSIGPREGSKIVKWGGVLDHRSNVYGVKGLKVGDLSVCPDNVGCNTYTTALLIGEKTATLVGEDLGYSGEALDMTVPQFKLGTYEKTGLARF

[2] = substrate: CO; experiment: purified protein, by the assay type; conditions: other: apparent Michaelis constant; pH 6.5

In the case of `CC=O` [acetaldehyde], the “reactivity of the alcohol oxidase toward substrate” value [1] is reported as “not reactive”.

With `CO` [Methanol] the Km ([1]; read-out: Km for methanol, apparent Michaelis constant) was 4 mM.

B1: alcohol oxidase from Pichia pastoris (Komagataella phaffii GS115) (protein)
chain: MAIPEEFDILVLGGGSSGSCIAGRLANLDHSLKVGLIEAGENNLNNPWVYLPGIYPRNMKLDSKTASFYTSNPSPHLNGRRAIVPCANVLGGGSSINFMMYTRGSASDYDDFQAEGWKTKDLLPLMKKTETYQRACNNPDIHGFEGPIKVSFGNYTYPVCQDFLRASESQGIPYVDDLEDLVTAHGAEHWLKWINRDTGRRSDSAHAFVHSTMRNHDNLYLICNTKVDKIIVEDGRAAAVRTVPSKPLNPKKPSHKIYRARKQIVLSCGTISSPLVLQRSGFGDPIKLRAAGVKPLVNLPGVGRNFQDHYCFFSPYRIKPQYESFDDFVRGDAEIQKRVFDQWYANGTGPLATNGIEAGVKIRPTPEELSQMDESFQEGYREYFEDKPDKPVMHYSIIAGFFGDHTKIPPGKYMTMFHFLEYPFSRGSIHITSPDPYAAPDFDPGFMNDERDMAPMVWAYKKSRETARRMDHFAGEVTSHHPLFPYSSEARALEMDLETSNAYGGPLNLSAGLAHGSWTQPLKKPTAKNEGHVTSNQVELHPDIEYDEEDDKAIENYIREHTETTWHCLGTCSIGPREGSKIVKWGGVLDHRSNVYGVKGLKVGDLSVCPDNVGCNTYTTALLIGEKTATLVGEDLGYSGEALDMTVPQFKLGTYEKTGLARF
In the case of B1, the Km [2] is reported as 4 mM.
